Assay results published in patent publication US5420335A, “Parenteral nutrients based on watersoluble glycerol bisacetoacetates” (priority 1993, dated 1995).
Where “and” joins values, the source holds several entries; their conditions need not be identical. Identical values can stand only once.

How the values were obtained:
Assay type in all cases: in vivo, rat (male Sprague-Dawley)
[1] = Daily body weight of intravenously infused rats; details: Table 10, Example 4
Procedure: (§1) Water was available ad libitum at all times.
(§2) The vein was then ligated dorsally to the catheter. […] Body weights were measured daily.
(§3) Infusate volume, oral food intake, body weight and urinary volume and total nitrogen were monitored daily for each rat. Infusate volume and food intake were determined by weighing the appropriate container at the start and end of each 24 hr. period. Measurements were recorded between 9 and 10 AM each day. At the end of the 7th day, rats were sacrificed, and blood and liver were harvested. Plasma was separated for measurement of free fatty acids, glucose, and ketone bodies. Liver was weighed and a sample was fixed in buffered formalin for gross histology.
The data were analyzed for significance by the one-way analysis of variance with repeated measures and comparing the effect of dietary treatment on each day. […] The null hypothesis was concluded invalid if p≤0.05. The analysis of variance was computed on a SAS statistical package.
This compound has an estimated energy density of 4.86 kcal/gram based on thermodynamic data from similar compounds.

[2] = Daily urinary nitrogen losses of intravenously infused rats
Procedure: as §1, §2, §3
(§4) The data were analyzed for significance by the one-way analysis of variance with repeated measures and comparing the effect of dietary treatment on each day. […] The null hypothesis was concluded invalid if p≤0.05. The analysis of variance was computed on a SAS statistical package. […]

[3] = Liver weight after 7 days of infusion; details: for Liver/100 GM: as percentage of body weight
Procedure: as §3, §4

[4] = Oral dietary nitrogen (food) intake of intravenously infused rats

Question: What does the source list for `OC[C@H]1OC(O)[C@H](O)[C@@H](O)[C@@H]1O` (stereo partly drawn) [Glucose, glucose, reference compound]?
Answer: Daily Body Weight ([1]; day 2, individual rat): 261 Grams and 290 Grams and 267 Grams and 246 Grams and 224 Grams and 259 Grams and 237 Grams and 235 Grams and 245 Grams; Daily Body Weight ([1]; day 3, average of 9 rats): 251 Grams; Daily Body Weight ([1]; day 3, individual rat): 260 Grams and 292 Grams and 269 Grams and 240 Grams and 227 Grams and 264 Grams and 244 Grams and 234 Grams and 229 Grams; Daily Body Weight ([1]; day 4, average of 9 rats): 258 Grams; Daily Body Weight ([1]; day 4, individual rat): 263 Grams and 297 Grams and 273 Grams and 239 Grams and 234 Grams and 282 Grams and 248 Grams and 245 Grams; Daily Body Weight ([1]; day 5, average of 9 rats): 257 Grams; Daily Body Weight ([1]; day 5, individual rat): 268 Grams and 298 Grams and 270 Grams and 237 Grams and 239 Grams and 250 Grams and 241 Grams; Daily Body Weight ([1]; day 6, average of 9 rats): 263 Grams; Daily Body Weight ([1]; day 6, individual rat): 263 Grams and 302 Grams and 267 Grams and 241 Grams and 259 Grams and 268 Grams and 254 Grams and 245 Grams and 271 Grams; Daily Body Weight ([1]; day 7, average of 9 rats): 259 Grams; Daily Body Weight ([1]; day 7, individual rat): 264 Grams and 305 Grams and 272 Grams and 237 Grams and 247 Grams and 261 Grams and 249 Grams and 244 Grams and 255 Grams; Urinary Nitrogen ([2]; Table 2, Example 2, day 1, average of 7 rats): 144 mg; Urinary Nitrogen ([2]; Table 2, Example 2, day 1, individual rat): 164.08 mg and 92.04 mg and 219.2 mg and 80.25 mg and 78.51 mg and 282.44 mg and 88.28 mg; Urinary Nitrogen ([2]; Table 2, Example 2, day 2, average of 7 rats): 146 mg; Urinary Nitrogen ([2]; Table 2, Example 2, day 2, individual rat): 131.95 mg and 74.58 mg and 311.7 mg and 147.44 mg and 42.51 mg and 224.09 mg and 88.37 mg; Urinary Nitrogen ([2]; Table 2, Example 2, day 3, average of 7 rats): 203 mg; Urinary Nitrogen ([2]; Table 2, Example 2, day 3, individual rat): 58.42 mg and 94.88 mg and 599.66 mg and 115.01 mg and 145.05 mg and 174.3 mg and 236.92 mg; Urinary Nitrogen ([2]; Table 2, Example 2, day 4, average of 7 rats): 129 mg; Urinary Nitrogen ([2]; Table 2, Example 2, day 4, individual rat): 109.72 mg and 80.52 mg and 274.22 mg and 93.31 mg and 78.6 mg and 145.43 mg and 124.12 mg; Urinary Nitrogen ([2]; Table 2, Example 2, day 5, average of 7 rats): 177 mg; Urinary Nitrogen ([2]; Table 2, Example 2, day 5, individual rat): 111.02 mg and 125.89 mg and 316.17 mg and 84.8 mg and 224.34 mg and 241.17 mg and 137.97 mg; Urinary Nitrogen ([2]; Table 2, Example 2, day 6, average of 7 rats): 178 mg; Urinary Nitrogen ([2]; Table 2, Example 2, day 6, individual rat): 114.67 mg and 65.54 mg and 227.23 mg and 135.24 mg and 118.95 mg and 333.85 mg and 252.42 mg; Urinary Nitrogen ([2]; Table 2, Example 2, day 7, average of 7 rats): 218 mg; Urinary Nitrogen ([2]; Table 2, Example 2, day 7, individual rat): 71.89 mg and 105.54 mg and 474.91 mg and 159.89 mg and 124.66 mg and 267 mg and 319.39 mg; Urinary Nitrogen ([2]; Table 8, Example 4, day 1, average of 9 rats): 128 mg; Urinary Nitrogen ([2]; Table 8, Example 4, day 1, individual rat): 252 mg and 114.8 mg and 82.1 mg and 75.4 mg and 22.4 mg and 158.4 mg and 133.9 mg and 148.3 mg and 164.3 mg; Urinary Nitrogen ([2]; Table 8, Example 4, day 2, average of 9 rats): 135 mg; Urinary Nitrogen ([2]; Table 8, Example 4, day 2, individual rat): 266.4 mg and 153.9 mg and 105 mg and 57 mg and 91.8 mg and 159.8 mg and 111 mg and 108.9 mg and 158 mg; Urinary Nitrogen ([2]; Table 8, Example 4, day 3, average of 9 rats): 106 mg; Urinary Nitrogen ([2]; Table 8, Example 4, day 3, individual rat): 151 mg and 89.1 mg and 107.2 mg and 68.4 mg and 118.3 mg and 131.9 mg and 135.4 mg and 59.8 mg and 91.8 mg; Urinary Nitrogen ([2]; Table 8, Example 4, day 4, average of 9 rats): 125 mg; Urinary Nitrogen ([2]; Table 8, Example 4, day 4, individual rat): 127.2 mg and 92.7 mg and 114.8 mg and 44.5 mg and 73.8 mg and 165.9 mg and 168.7 mg and 93.6 mg and 240.1 mg; Urinary Nitrogen ([2]; Table 8, Example 4, day 5, average of 9 rats): 131 mg; Urinary Nitrogen ([2]; Table 8, Example 4, day 5, individual rat): 127.8 mg and 97.7 mg and 93.7 mg and 45.9 mg and 84.8 mg and 236.3 mg and 166.4 mg and 123.4 mg and 203.2 mg; Urinary Nitrogen ([2]; Table 8, Example 4, day 6, average of 9 rats): 172 mg; Urinary Nitrogen ([2]; Table 8, Example 4, day 6, individual rat): 256.3 mg and 104.9 mg and 133.7 mg and 72.7 mg and 138.3 mg and 307.5 mg and 146.9 mg and 169.4 mg and 215.2 mg; Urinary Nitrogen ([2]; Table 8, Example 4, day 7, average of 9 rats): 162 mg; Urinary Nitrogen ([2]; Table 8, Example 4, day 7, individual rat): 118.3 mg and 106.6 mg and 175.8 mg and 22.6 mg and 145.6 mg and 384.8 mg and 126.8 mg and 162.4 mg and 212.8 mg; urinary nitrogen losses ([2]; in words, 7 days): Saline infused rats also lost more nitrogen in the urine than did glucose infused rats; Liver/100 GM ([3]; Table 5, Example 2, average of 7 rats): 3.220; Liver/100 GM ([3]; Table 5, Example 2, individual rat): 2.600 and 3.333 and 3.255 and 4.208 and 3.057 and 3.004 and 3.081; Liver Wt. ([3]; Table 5, Example 2, end of day 7, average of 7 rats): 7.983 Grams; Liver Wt. ([3]; Table 5, Example 2, end of day 7, individual rat): 6.37 Grams and 7.6 Grams and 8.17 Grams and 9.51 Grams and 7.03 Grams and 8.05 Grams and 9.15 Grams; Liver/100 GM ([3]; Table 11, Example 4, average): 3.636; Liver/100 GM ([3]; Table 11, Example 4, individual rat): 3.116 and 3.748 and 3.4975 and 3.789 and 4.01 and 4.617 and 3.403 and 3.377 and 3.169; Liver Wt. ([3]; Table 11, Example 4, end of day 7, average): 9.433; Liver Wt. ([3]; Table 11, Example 4, end of day 7, individual rat): 8.2264 and 11.4311 and 9.5132 and 8.9798 and 9.9056 and 12.0506 and 8.4742 and 8.2387 and 8.0815; liver weight and percentage liver weight ([3]; in words, end of day 7): similarity between glucose infused and experimental compound infused rats liver; Dietary Nitrogen Intake ([4]; Table 1, Example 2, day 1, average of 7 rats): 203 MG N; Dietary Nitrogen Intake ([4]; Table 1, Example 2, day 2, average of 7 rats): 302 MG N; Dietary Nitrogen Intake ([4]; Table 1, Example 2, day 3, average of 7 rats): 291 MG N; Dietary Nitrogen Intake ([4]; Table 1, Example 2, day 4, average of 7 rats): 322 MG N; Dietary Nitrogen Intake ([4]; Table 1, Example 2, day 5, average of 7 rats): 290 MG N; Dietary Nitrogen Intake ([4]; Table 1, Example 2, day 7, average of 7 rats): 354 MG N; Dietary Nitrogen Intake ([4]; Table 7, Example 4, oral only, day 1, average of 9 rats): 279 MG N; Dietary Nitrogen Intake ([4]; Table 7, Example 4, oral only, day 1, individual rat): 500.08 MG N and 388.22 MG N and 164.5 MG N and 151.34 MG N and 78.96 MG N and 421.12 MG N and 329 MG N and 98.7 MG N and 375.06 MG N; Dietary Nitrogen Intake ([4]; Table 7, Example 4, oral only, day 2, average of 9 rats): 369 MG N; Dietary Nitrogen Intake ([4]; Table 7, Example 4, oral only, day 2, individual rat): 519.82 MG N and 513.24 MG N and 500.08 MG N and 98.7 MG N and 269.78 MG N and 434.28 MG N and 342.16 MG N and 243.46 MG N and 401.38 MG N; Dietary Nitrogen Intake ([4]; Table 7, Example 4, oral only, day 3, average of 9 rats): 323 MG N; Dietary Nitrogen Intake ([4]; Table 7, Example 4, oral only, day 3, individual rat): 355.32 MG N and 388.22 MG N and 394.8 MG N and 151.34 MG N and 467.18 MG N and 407.96 MG N and 197.4 MG N; Dietary Nitrogen Intake ([4]; Table 7, Example 4, oral only, day 4, average of 9 rats): 372 MG N; Dietary Nitrogen Intake ([4]; Table 7, Example 4, oral only, day 4, individual rat): 506.66 MG N and 401.38 MG N and 342.16 MG N and 427.7 MG N and 85.54 MG N and 282.94 MG N and 480.34 MG N and 486.92 MG N and 335.58 MG N; Dietary Nitrogen Intake ([4]; Table 7, Example 4, oral only, day 5, average of 9 rats): 379 MG N; Dietary Nitrogen Intake ([4]; Table 7, Example 4, oral only, day 5, individual rat): 493.5 MG N and 421.12 MG N and 368.48 MG N and 335.58 MG N and 0 MG N and 427.7 MG N and 454.02 MG N; Dietary Nitrogen Intake ([4]; Table 7, Example 4, oral only, day 6, average of 9 rats): 382 MG N; Dietary Nitrogen Intake ([4]; Table 7, Example 4, oral only, day 6, individual rat): 500.08 MG N and 454.02 MG N and 375.06 MG N and 329 MG N and 0 MG N and 394.8 MG N and 421.12 MG N and 447.44 MG N and 519.82 MG N; Dietary Nitrogen Intake ([4]; Table 7, Example 4, oral only, day 7, average of 9 rats): 381 MG N; Dietary Nitrogen Intake ([4]; Table 7, Example 4, oral only, day 7, individual rat): 421.12 MG N and 414.54 MG N and 355.32 MG N and 32.9 MG N and 401.38 MG N and 473.76 MG N and 407.96 MG N and 500.08 MG N
